Laboratory results published in article PMC2854649 (Biochemical and biophysical research communications, 2009).
Read-outs that look alike come from different tables or passages of the source.

Legend:
[1] = tested on: CD1 mice; format: in vivo, mouse; details: for Percent Surviving: CD1 mice, survival recorded for 24 hrs
[2] = tested on: C57Bl/6J mice; format: in vivo, mouse; details: 2 mg in 200 μL saline via tail-vein injection, N=6
[3] = tested on: primary human lymphocytes (PBMCs); experiment: Cellular uptake and subcellular distribution of FITC-labeled peptides; format: cell-based; details: 5 μM fluorescein-labeled peptide, 1 h, RPMI with 10% FBS or serum-free PBS
[4] = tested on: male C57Bl/6 mice; experiment: Post-exposure treatment after lethal total body irradiation; format: in vivo, mouse; details: 1 mg dose, data not shown
[5] = tested on: CD3+ human PBMCs; experiment: Radiation-induced apoptosis; format: cell-based; details: CD3+ human PBMCs exposed to 20 Gy radiation, Figure 1

For “(d) ^1-Ac-RKKRR-Orn-RRR-β-A-(l) ^1-SNRELVVDFLSYKLSQKGYS-COOH [TAT-BH4]”, the “Appearance of mice the following day” value ([1]; 2 mg i.p.) was “appeared normal”, the “Percent Surviving” value ([1]; 2 mg i.p.) was 100% and the “Percent Surviving” value ([1]; 5 mg i.p.) was 75%. For the same substance, the “Appearance of surviving mice the following day” value ([1]; 5 mg or 20 mg i.p., necropsy: distended and edematous bowel, small necrotic foci) was “piloerection and distended abdomens”, the “Percent Surviving” value ([1]; 20 mg i.p.) was 25% and the “Time to death following injection” value [2] was 3 to 5 min.

For “Ac-KKKRKV-β-A-(l) ^1-SNRELVVDFLSYKLSQKGYS-COOH [NLS-BH4]”, the “Percent Surviving” value ([1]; 2 mg i.p.) was 100%, the “Percent Surviving” value ([1]; 10 mg i.p.) was 100% and the “Percent Surviving” value ([1]; 30 mg i.p.) was 100%. The “Tolerability of i.p. injections” value ([1]; 2, 5, or 0 mg i.p., N = 3 mice per group) was “without any apparent ill effects”, the “Uptake by PBMCs (fluorescence intensity, flow cytometry)” value [3] was “less dependent on the presence of serum” and the “Radiation-induced lymphocyte apoptosis in vivo (pilot study)” value [4] was “significantly attenuated radiation-induced lymphocyte apoptosis”.

In the case of “(d) ^1-Ac-RKKRR-Orn-RRR-β-A-(l) ^1-SNRELVVDFLSDKLSQKGDS-COOH [TAT-BH4i]”, the “Effect on radiation-induced apoptosis, in words” value [5] is reported as “Neither TAT-BH4i nor NLS-BH4i had any appreciable effect”.

For “(d) ^1-Ac-RKKRR-Orn-RRR-COOH [TAT, reference compound]”, the “Percent Surviving” value ([1]; 2 mg i.p.) was 100% and the “Percent Surviving” value ([1]; 5 mg i.p.) was 0%.

In the case of “Ac-KKKRKV-β-A-(l) ^1-SNRELVVDFLSDKLSQKGDS-COOH [NLS-BH4i]”, the “Effect on radiation-induced apoptosis, in words” value [5] is reported as “Neither TAT-BH4i nor NLS-BH4i had any appreciable effect”.
